Molecules are shown by their SMILES.

In the case of `CNC(=O)NNC1=NS(=O)(=O)c2ccccc21`, the melting point (as a rule, the temperature, or range, at which the solid turns liquid) turned out to be 183 °C.
The result for `CC(=O)NCCNC(=O)c1ccccn1` reads 96 to 99 °C; that for `c1ccc2c(c1)Oc1ccccc1C2NCCn1ccnc1`, 90 to 92 °C.
The result for `Nc1ccc(Oc2ccc(C3CCCCC3)cc2)c(N)c1` reads 101 °C; that for `CCCCCC(=O)c1c(CBr)nc2cc(OC)c(OC)cc2c1-c1ccc(OC)c(OC)c1`, 146 to 147 °C; that for `O=C(O)c1ccc(NC(c2ccc(Cl)cc2)c2ccc(Cl)cc2)cc1`, 245 to 247 °C.
Then `CC(C)c1ccc(S(=O)(=O)Nc2ccc(C(F)(F)F)cc2I)cc1`, with 101 °C.
`CC(Nc1ncnc2[nH]cnc12)c1oc2cccc(F)c2c(=O)c1-c1cccc(F)c1` (configuration not stated): the melting point fell in the range of 195 to 198 °C.
Take `CCOC(=O)[C@H](Cc1ccc(-c2c(OC)cc(C=O)cc2OC)cc1)NC(=O)c1c(F)cccc1F`: the melting point fell in the range of 114 to 116 °C.
The result for `CNCC#CC1=Cc2ccccc2Sc2ccc(Cl)cc21` reads 92 to 94 °C; that for `O=c1ccn(-c2cccc(C(F)(F)F)c2)nc1-c1ccoc1-c1ccccc1`, 159 to 163 °C.
The result for `CCOC(=O)c1c(C)nc2ccc(NCCCN3CCC(OC(c4ccccc4)c4ccccc4)CC3)nn12` reads 117 to 119 °C; that for `CC(C)CN/C(=C1/Sc2ccccc2C1=O)c1ccccc1`, 125 to 126 °C; that for `COCCCn1nnnc1-c1cc(Br)c(OCc2ccccc2)cc1OCc1ccccc1`, 92 to 93 °C.
Then `CC12C=CC(=O)C=C1C(F)CC1C2=CCC2(C)C(C(=O)CCl)=CCC12` (configuration not stated), with 196 to 200 °C.
The compound `OCC1Cc2cccc(F)c2OC1CO` (configuration not stated) returned a melting point of 111 °C.
Then `C=CC(=O)c1c(-c2ccccc2)[nH]c2ccccc12`, with 145 to 146 °C; and `Cc1ccc(-c2nc3ccc(C)cn3c2C(O)C(=O)N(C)C)cc1` (configuration not stated), with 175 to 177 °C.
Regarding `CC(C)CN(Cc1nnc(-c2ncn3c2CN(C)C(=O)c2ccccc2-3)o1)CC(C)C`, the melting point fell in the range of 138 to 140 °C.
The result for `COC(=O)c1ccc(CNS(C)(=O)=O)cc1S(=O)(=O)Cl` reads 93 to 94 °C; that for `CC(C)n1c(=O)c2c(-c3nc(C4CC4)no3)ncn2c2cccnc21`, 221 to 223 °C; that for `CC(O)C1(c2cccc(Cl)c2)CCCN(C)CC1` (configuration not stated), 123 to 124 °C.
In the case of `CSc1ccc(CC(=O)NC(NC(=NC#N)Nc2ccccc2C)C(C)(C)C)cc1` (configuration not stated), the melting point was in the range of 151 to 152 °C.
The compound `Nc1ncc2ncn(CCO)c2n1` gave a melting point of 173 to 175 °C.
Then `Nc1cccc(N2C(=O)c3ccc(N)cc3C2=O)c1`, with 228 to 231 °C.
Consider `CC(C)n1nc2cccc([N+](=O)[O-])c2n1`, for which the melting point lay in the range of 65 to 67 °C.
Then `CS(=O)c1cccc(-c2ncn(CCCN3CCOCC3)c2-c2ccncc2)c1` (configuration not stated), with 117 to 118 °C; and `CC(C)OC(=O)N1CCC(c2nc3cc(-c4ccc(-n5cnnn5)c(F)c4)ccc3o2)CC1`, with 187 to 191 °C; and `CC(=O)OCCN1CCN(C(=O)Cn2c(=O)sc3ncc(Cl)cc32)CC1`, with 153 to 155 °C.
The result for `COc1ccc(-c2nnc3c4ccccc4c(Cl)nn23)cc1` reads 192 to 193 °C; that for `COc1ccc2c(=O)c(C=O)coc2c1`, 188 to 190 °C.
Then `COc1ccc(-c2cnn3c(N)c(-c4cccc(Cl)c4)c(C)nc23)cc1`, with 171 to 172 °C; and `Cc1c(-c2cc(Nc3cc4n(n3)CCN(C)C4)c(=O)n(CO)n2)cccc1N1Cc2cc(C(C)(C)C)sc2C1=O`, with 185 to 187 °C.
The compound `CN(c1cc(F)cc2cc(C3=NCCS3)[nH]c12)S(=O)(=O)c1cccs1` had a melting point of 188 to 189 °C.
The compound `COC(=O)COc1cc(C(=O)OC)nc2cc(Cl)ccc12` displayed a melting point of 154 °C.
The result for `CCN(c1cccc2cc(-c3ncc(COc4ccc(C(=O)O)cc4)s3)[nH]c12)S(=O)(=O)c1cccs1` reads 188 °C; that for `COc1ccc2c(c1)[C@@H]1c3ccccc3N[C@@H]1C2` (relative stereo), 129 to 130 °C; that for `N#CCCCCCC#Cc1nc(N)c2ncn(C3OC(CO)C(O)C3O)c2n1` (configuration not stated), 99 to 101 °C.
`CCCc1nc2c(N)nc3cc(Oc4ccccc4C#N)ccc3c2n1CC(C)C`: the melting point was 230 to 232 °C.
The result for `O=c1[nH]c(CCc2ccccc2OCc2ccccc2)ccc1-c1nnn[nH]1` reads 211 to 213 °C; that for `COC(=O)CCCc1cc2nc(Cl)ccc2n1S(=O)(=O)c1ccc2nc(N)sc2c1`, 85 to 90 °C; that for `CC(C)(C)C(=NO)C(C)(C)CCCCCCC(C)(C)C(=NO)C(C)(C)C`, 203 to 209 °C.
The result for `Cn1nc(CNC(=O)Nc2ccccc2)nc1NCCCOc1cccc(CN2CCCCC2)c1` reads 120 to 121 °C.
The result for `CCCCCCCCCCCCCCOc1ccc(CC(=O)OC)cc1` reads 36 to 38 °C.
Compound `Clc1ccc(NC2=NCCN2)c(Cl)c1` came in with a melting point of 138 to 139 °C.
The result for `COC12CC(C)(C)C(OC(C)=O)C(C=C1C)O2` (configuration not stated) reads 54 to 55 °C; that for `CS(=O)(=O)c1ccc(C(=O)c2cc(-c3ccncc3)c(N3CCOCC3)s2)cc1`, 128 °C.
The result for `Cc1cnc(-c2ssc(=S)c2C)cn1` reads 162 to 163 °C.
`Cc1ccc2c(c1)Oc1sc(C)cc1C(N1CCN(C)CC1)=N2` showed a melting point of 149 to 150 °C.
Then `O=C1CCC2=C(CCc3cc(Cl)c(Cl)cc32)N1`, with 260 to 261 °C; and `CC(C)CC1(CCCCCl)C(=O)Nc2ccccc21` (configuration not stated), with 124 to 125 °C.
Then `COc1ccc(S(=O)(=O)Nc2cccnc2Nc2ccc(O)c(C)c2)cc1`, with 89 to 91 °C.
The result for `Cc1ccc(S(=O)(=O)N(C)c2ccc(Cl)cc2C#N)cc1` reads 145 to 147 °C; that for `CC(C)(C)OC(=O)NCCc1ccc(OCCC2Oc3ccccc3N(Cc3ccccc3Cl)C2=O)cc1` (configuration not stated), 108 to 111 °C.
For the compound `CC(C)(C)OC(=O)Nc1cc(OCc2ccccc2)c2ccccc2c1I`, the melting point is 111 to 112 °C.
Then `O=C(O)C(Br)CCCCCc1ccc(Cl)cc1` (configuration not stated), with 77 to 79 °C.
`O=C(NCC(=O)N1c2ccccc2N(Cc2ccccc2)C(=O)[C@H]2CCC[C@H]21)c1ccncc1` (relative stereo) returned a melting point of 196 to 199 °C.
Then `CNC(=O)[C@@H]1C[C@@H](OCc2ccccc2)CN1S(=O)(=O)c1ccc(Cl)c(COc2cccc3c(-n4ccnc4)cc(C)nc23)c1Cl`, with 100 °C.
With `COC(=O)c1c(-c2ccncc2)[nH]c(-c2ccncc2)c1C`, the melting point was 245 to 247 °C.
Then `CC(C)S(=O)(=O)c1cc(OCc2ccccc2)c2[nH]nc(N)c2c1`, with 179 to 180 °C; and `CCCCc1n[nH]c(C(=O)OC)c1Cc1ccc(-c2ccccc2-c2nc(=O)s[nH]2)cc1`, with 171 to 172 °C.
Regarding `Cc1nc(NC(=O)Nc2ccc(Cl)cc2)sc1C(=O)NCc1ccccc1`, the melting point is greater than 300 °C.
Compound `O=C(O)COc1ccc2c(c1)CCc1sc(SC(c3ccccc3)c3ccccc3)nc1-2` registered a melting point of 193 to 195 °C.
Then `CN(Cc1ccc(C(=O)Cn2cnc3cc(-c4ccc(Cl)cc4)sc3c2=O)cc1)C(=O)C(F)(F)F`, with 235 to 238 °C.
Then `COC(=O)CCc1ccc(N2CCN(c3ccc(CN)cc3C)C2=O)cc1`, with greater than 275 °C.
The result for `CC(=O)Nc1ccc(S(=O)(=O)N2CCN(c3c(F)cc4c(=O)c(C(=O)O)cn(CC(C)C)c4c3F)CC2)cc1` reads 181 to 183 °C.
`O=S1(=O)N=CN(C2CC2)c2cccc(F)c21` yielded a melting point of 156 to 157 °C.
The result for `COc1ccc(-c2cc(SC)sc2-c2ccc(OC)cc2)cc1` reads 106 to 108 °C; that for `O=C1Nc2cccc(O)c2C12COc1cc3c(cc12)OCCO3` (configuration not stated), greater than 250 °C.
In turn, `Cc1cc(C(=O)Nc2nc(-c3ccoc3)c(C(=O)C3CCOCC3)s2)ccn1` gave a melting point of 202 to 204 °C.
Then `COC(=O)c1cc(NC(=N)N)c(NC(C)=O)cc1O`, with 233 to 234 °C; and `CC(C)(O)c1ccc(CNC(=O)c2cccnc2Oc2ccc(F)cc2)cc1`, with 106 to 108 °C; and `Nc1nccc(-c2ccccc2OCC(O)CN2CCN(c3ccc(Cl)cc3)CC2)n1` (configuration not stated), with 159 to 160 °C.
The result for `CC(C)(C)OC(=O)N1C(=O)O[C@@H](c2ccncc2)[C@H]1Cc1ccc(C(F)(F)F)cc1` (racemic) reads 166 to 168 °C; that for `CCC(Oc1c(Cl)cccc1Cl)C(=O)OC1CC(O)C=C2C=CC(C)C(CCC3CC(O)CC(=O)O3)C21` (mixture of isomers), 107 to 109 °C; that for `Clc1nc(-c2ccc3c(c2)CCO3)nc2ccccc12`, 186 to 192 °C.
Then `COc1ccc(C2(C)C(=O)Nc3cc(Cl)cc(Cl)c3C2=O)cc1` (configuration not stated), with 210 to 212 °C; and `COc1ccc2c(c1)C1(O)C(=O)c3ccccc3C1(O)O2` (configuration not stated), with 186 to 189 °C; and `Cc1oc(-c2cccc(-c3nc(CC(=O)OCc4ccccc4)c(C)o3)c2)nc1CC(=O)OCc1ccccc1`, with 98 to 100 °C.
`COc1ccc(-n2nc(CCCNO)cc2-c2ccc(Cl)cc2)cc1` displayed a melting point of 91 to 93 °C.
Then `O=C(Oc1cccc2cnccc12)c1cc2ccccc2oc1=O`, with 190 to 193 °C; and `COC(=O)c1ccc2c(c1)NC(=O)C(C)O2` (configuration not stated), with 156 to 159 °C.
Then `CN1CCN(C(=O)c2cc(Oc3ccc4c(c3)CCN4C(=O)Nc3cccc(C(F)(F)F)c3)ncn2)CC1`, with 203 to 204 °C; and `Clc1ccc2nc3c4ccccc4c4ccccc4c3nc2c1`, with 241 to 242 °C; and `O=C(O)c1csc(-c2ccc(OCC(F)(F)C(F)F)cc2)n1`, with 170 to 173 °C.
The result for `CN(C)CCCC1(O)c2ccccc2CCc2c(C3(C)OCCO3)cccc21` (configuration not stated) reads 122 to 124 °C; that for `COc1cc(C(=O)ON=C(C)N)cc([N+](=O)[O-])c1OC`, 165 to 166 °C.

Values taken from a melting point compilation (Tetko et al.; mined from patent text by program, amines drawn as free bases though some values may be those of a salt).
